Converted amounts (≈) assume the structure as drawn. “And” between values parts separate entries of the source, which are not always exact repeats. Identical values can stand only once. Like-named read-outs stand apart in the source and are kept apart here. Values belong to the compound of their own block, whether it stands above or below them.
Key:
[1] = Characterization of NO release (chemiluminescence nitric oxide analyzer); type: physicochemical
Candida albicans = experiment: Susceptibility assay (MIC, broth microdilution, CLSI M27); type: cell-based; conditions: for MIC: 24 h; for NO dose at MIC: calculated NO dose at MIC
Candida auris = experiment: as above; type: cell-based; conditions: for MIC / NO dose at MIC: Candidozyma auris; for MIC: 24 h; for NO dose at MIC: calculated NO dose at MIC
Cryptococcus neoformans = experiment: as above; type: cell-based; conditions: for MIC / NO dose at MIC: Cryptococcus neoformans; for MIC: 72 h; for NO dose at MIC: calculated NO dose at MIC
[2] = tested on: Aspergillus fumigatus spores; experiment: Susceptibility assay for sporulating fungi (MIC, EUCAST E.Def.9.4); type: cell-based
[3] = tested on: C. albicans (ATCC MYA-2876); experiment: Checkerboard assay of NO donors with antifungals; type: cell-based, Candida albicans
C. auris (ATCC MYA-5001) = experiment: Checkerboard assay of NO donors with antifungals; type: cell-based, Candida auris
[4] = tested on: C. neoformans (ATCC 208821); experiment: Checkerboard assay of NO donors with antifungals; type: cell-based, Cryptococcus neoformans
C. auris (MYA-5001) = type: cell-based, Candida auris
[5] = tested on: C. neoformans (ATCC208821); type: cell-based, Cryptococcus neoformans
[6] = tested on: MatTek EpiAirway tissue (AIR-100); experiment: cells; type: cell-based; conditions: Homo sapiens, 24 h, read-out: IC50 (concentration needed to inhibit tissue viability by 50%)
[7] = phosphate-buffered saline 10 mM, pH 7.4, 37 °C
[8] = ATCC14053, Candida albicans ATCC 14053
[9] = ATCC18804, Candida albicans ATCC 18804
[10] = Cryptococcus neoformans ATCC MYA-4566
[11] = Cryptococcus neoformans ATCC MYA-4567
[12] = ATCC208821, 72 h, Cryptococcus neoformans ATCC 208821
[13] = ATCC1022, Aspergillus fumigatus ATCC 1022 spores
[14] = NO donor combined with 5-fluorocytosine
[15] = NO donor combined with amphotericin B
[16] = NO donor combined with butenafine
[17] = NO donor combined with caspofungin
[18] = NO donor combined with fluconazole
[19] = NO donor combined with miconazole

SMILES: NCCN(CCN)/[N+]([O-])=N/O [DETA/NO, diethylenetriamine/NO]
- [NO]t, total NO released over full duration ([1]; pH 7.4): 6.3 ± 0.6 µmol/mg
- [NO]max, maximum instantaneous NO concentration [1, 7]: 735 ± 94 ppb mg^−1
- td, duration of NO release [1, 7]: 107.6 ± 19.9 h
- MIC (Candida albicans; [8]): 625 µg/mL (≈ 3830 µM)
- NO dose at MIC (Candida albicans; [8]): 117 µg/mL
- MIC (Candida albicans; [9]): 625 µg/mL (≈ 3830 µM)
- NO dose at MIC (Candida albicans; [9]): 117 µg/mL
- Selectivity Index (IC50 AIR-100 / MIC) (Candida albicans; C. albicans ATCC 14053): 77
- Selectivity Index (IC50 AIR-100 / MIC) (Candida albicans; C. albicans ATCC 18804): 77
- Selectivity Index (IC50 AIR-100 / MIC) (Candida albicans; C. albicans ATCC MYA-2876): 383
- MIC (Candida albicans; Candida albicans ATCC MYA-2876): 125 µg/mL (≈ 766 µM)
- NO dose at MIC (Candida albicans; Candida albicans ATCC MYA-2876): 23.5 µg/mL
- Selectivity Index (IC50 AIR-100 / MIC) (Candida auris; C. auris ATCC MYA-5000): 77
- Selectivity Index (IC50 AIR-100 / MIC) (Candida auris; C. auris ATCC MYA-5001): 1595
- Selectivity Index (IC50 AIR-100 / MIC) (Candida auris; C. auris ATCC MYA-5003): 154
- MIC (Candida auris; Candida auris ATCC MYA-5000): 625 µg/mL (≈ 3830 µM)
- MIC (Candida auris; Candida auris ATCC MYA-5001): 30 µg/mL (≈ 184 µM)
- MIC (Candida auris; Candida auris ATCC MYA-5003): 310 µg/mL (≈ 1900 µM)
- NO dose at MIC (Candida auris; Candida auris ATCC MYA-5000): 117 µg/mL
- NO dose at MIC (Candida auris; Candida auris ATCC MYA-5001): 5.65 µg/mL
- NO dose at MIC (Candida auris; Candida auris ATCC MYA-5003): 58.4 µg/mL
- Selectivity Index (IC50 AIR-100 / MIC) (Cryptococcus neoformans; C. neoformans ATCC 208821): 191
- Selectivity Index (IC50 AIR-100 / MIC) (Cryptococcus neoformans; C. neoformans ATCC MYA-4566): 613
- Selectivity Index (IC50 AIR-100 / MIC) (Cryptococcus neoformans; C. neoformans ATCC MYA-4567): 154
- MIC (Cryptococcus neoformans; [10]): 78 µg/mL (≈ 478 µM)
- MIC (Cryptococcus neoformans; [11]): 310 µg/mL (≈ 1900 µM)
- MIC (Cryptococcus neoformans; [12]): 250 µg/mL (≈ 1530 µM)
- NO dose at MIC (Cryptococcus neoformans; ATCC208821, Cryptococcus neoformans ATCC 208821): 47 µg/mL
- NO dose at MIC (Cryptococcus neoformans; [10]): 14.7 µg/mL
- NO dose at MIC (Cryptococcus neoformans; [11]): 58.4 µg/mL
- Selectivity Index (IC50 AIR-100 / MIC) ([2]; A. fumigatus ATCC 1022): 150
- MIC [2, 13]: 320 µg/mL (≈ 1960 µM)
- NO dose at MIC ([2]; ATCC1022, Aspergillus fumigatus ATCC 1022 spores, calculated NO dose at MIC): 60.5 µg/mL
- checkerboard classification [3, 14]: I (indifferent (I))
- ∑FIC [3, 14]: ≥ 1
- checkerboard classification [3, 15]: I (indifferent (I))
- ∑FIC [3, 15]: ≥ 1
- checkerboard classification [3, 16]: I (indifferent (I))
- ∑FIC [3, 16]: ≥ 1
- checkerboard classification [3, 17]: I (indifferent (I))
- ∑FIC [3, 17]: ≥ 1
- checkerboard classification [3, 18]: I (indifferent (I))
- ∑FIC [3, 18]: ≥ 1
- checkerboard classification [3, 19]: S (Synergistic (S))
- ∑FIC [3, 19]: 0.375
- checkerboard classification (C. auris (ATCC MYA-5001); [14]): I (indifferent (I))
- ∑FIC (C. auris (ATCC MYA-5001); [14]): ≥ 1
- checkerboard classification (C. auris (ATCC MYA-5001); [15]): I (indifferent (I))
- ∑FIC (C. auris (ATCC MYA-5001); [15]): ≥ 1
- checkerboard classification (C. auris (ATCC MYA-5001); [16]): I (indifferent (I))
- ∑FIC (C. auris (ATCC MYA-5001); [16]): ≥ 1
- checkerboard classification (C. auris (ATCC MYA-5001); [17]): I (indifferent (I))
- ∑FIC (C. auris (ATCC MYA-5001); [17]): ≥ 1
- checkerboard classification (C. auris (ATCC MYA-5001); [18]): I (indifferent (I))
- ∑FIC (C. auris (ATCC MYA-5001); [18]): ≥ 1
- checkerboard classification (C. auris (ATCC MYA-5001); [19]): I (indifferent (I))
- ∑FIC (C. auris (ATCC MYA-5001); [19]): ≥ 1
- checkerboard classification [4, 14]: I (indifferent (I))
- ∑FIC [4, 14]: ≥ 1
- checkerboard classification [4, 15]: I (indifferent (I))
- ∑FIC [4, 15]: ≥ 1
- checkerboard classification [4, 16]: A (additive (A))
- ∑FIC [4, 16]: 0.500
- checkerboard classification [4, 17]: I (indifferent (I))
- ∑FIC [4, 17]: ≥ 1
- checkerboard classification [4, 18]: I (indifferent (I))
- ∑FIC [4, 18]: ≥ 1
- checkerboard classification [4, 19]: A (additive (A))
- ∑FIC [4, 19]: 0.562
- change in MIC or MFCs after serial passaging (C. auris (MYA-5001)): no change
- change in MIC or MFCs after serial passaging [5]: no change
- IC50 [6]: 48000 µg/mL (≈ 294000 µM)

- MIC of base scaffold (Candida albicans; Candida albicans ATCC 14053): 20000 µg/mL
- MIC of base scaffold (Candida albicans; Candida albicans ATCC 18804): > 20000 µg/mL
- MIC of base scaffold (Candida albicans; Candida albicans ATCC MYA-2876): > 20000 µg/mL
- MIC of base scaffold (Candida auris; Candida auris ATCC MYA-5000): > 20000 µg/mL
- MIC of base scaffold (Candida auris; Candida auris ATCC MYA-5001): > 20000 µg/mL
- MIC of base scaffold (Candida auris; Candida auris ATCC MYA-5003): > 20000 µg/mL
- MIC of base scaffold (Cryptococcus neoformans; Cryptococcus neoformans ATCC 208821): 5000 µg/mL
- MIC of base scaffold (Cryptococcus neoformans; [10]): 2500 µg/mL
- MIC of base scaffold (Cryptococcus neoformans; [11]): 2500 µg/mL
SMILES: NCCCNCCCCNCCCN [SPER, spermine, reference compound]

SMILES: NCCCNCCCN [DPTA, bis(3-aminopropyl) amine, reference compound]
- MIC of base scaffold (Candida albicans): 20000 µg/mL
- MIC of base scaffold (Candida auris): > 20000 µg/mL
- MIC of base scaffold (Cryptococcus neoformans): 5000 µg/mL and 2500 µg/mL

- MIC (Candida albicans; Candida albicans ATCC MYA-2876): 0.25 µg/mL (≈ 0.271 µM)
- MIC (Candida auris; Candida auris ATCC MYA-5001): 0.5 µg/mL (≈ 0.541 µM)
- MIC (Cryptococcus neoformans; [12]): 0.195 µg/mL (≈ 0.211 µM)
- MIC [2, 13]: 2.5 µg/mL (≈ 2.71 µM)
SMILES: C[C@@H]1[C@H](O)[C@@H](C)/C=C/C=C/C=C/C=C/C=C/C=C/C=C/[C@H](O[C@@H]2O[C@H](C)[C@@H](O)[C@H](N)[C@@H]2O)C[C@@H]2O[C@](O)(C[C@@H](O)C[C@@H](O)[C@H](O)CC[C@@H](O)C[C@@H](O)CC(=O)O[C@H]1C)C[C@H](O)[C@H]2C(=O)O [amphotericin B, reference compound]
- resistance of strain to antifungal (breakpoint) ([2]; A. fumigatus ATCC 1022, CLSI/EUCAST breakpoints): resistant

- MIC (Candida albicans; Candida albicans ATCC MYA-2876): > 4000 µg/mL
- MIC (Candida auris; Candida auris ATCC MYA-5001): > 4000 µg/mL
- MIC (Cryptococcus neoformans; [12]): 0.3 µg/mL (≈ 0.945 µM)
- MIC [2, 13]: > 500 µg/mL
SMILES: CN(Cc1ccc(C(C)(C)C)cc1)Cc1cccc2ccccc12 [butenafine, reference compound]

Source: PMC11121837, “Impact of Nitric Oxide-Release Kinetics on Antifungal Activity” (Journal of Fungi, 2024)
